pIC50: −log10 of the molar value. Residues, ends and D or L forms follow the SMILES beside them.
Target: T1, Human insulin (HI) amyloid fibrillation (Homo sapiens, UniProt P01308)
T1 construct: Insulin is a covalent dimer of two polypeptide chains (chain A and chain B) having 21 and 30 amino acid residues, respectively
Experiment: ThT fluorescence assay of insulin fibrillation
Format: biochemical
Conditions: for pIC50: 3-parameter dose response fit of normalized ThT intensity at 483 nm vs log [peptide], insulin incubated at 60°C for 72 h, 50 mM acetate buffer pH 2.0, peptide 0-750 μM, triplicates, read-out: IC50 against insulin aggregation; for percent inhibition of aggregation (ThT fluorescence): insulin incubated at 60°C for 72 h with peptide (Supplementary Figure S2), concentration not given
Procedure: Stock solution of insulin was prepared by dissolving insulin lyophilized powder in 50 mM acetate buffer, pH 2.0, and insulin concentration was determined by measuring absorbance at 276 nm, with the extinction coefficients of […] for 1 mg/ml. Fibrils were prepared by incubating insulin solution at 60°C for 72 h.
ThT stock solution was prepared by dissolving ThT in double distilled water, and the resulting solution was passed through a 0.2 micron millipore filter. The concentration of ThT was determined by measuring absorbance at 412 nm with a molar extinction coefficient of 36,600 M^−1cm^−1. ThT fluorescence assay was carried out on Shimadzu fluorescence spectrophotometer (RF-5301 PC). Insulin samples were incubated with or without peptides; from each set, samples were withdrawn at definite time intervals and mixed with ThT to have the final protein and dye concentration of 20 μM. The ThT was excited at 440 nm, and fluorescence spectra were recorded from 460 to 650 nm. Buffer (pH 2.0) was used for dilution, and spectra were corrected for the respective blanks. All measurements were performed in triplicates. All curves were fitted as described previously (Chaturvedi et al., [2015]).

T1 sequence (P01308 25-54 limits assumed): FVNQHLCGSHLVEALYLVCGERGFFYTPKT
T1 sequence (P01308 90-110 limits assumed): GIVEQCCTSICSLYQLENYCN

Compound	pIC50	percent inhibition of aggregation (ThT fluorescence) [%]
CC[C@H](C)[C@H](NC(=O)[C@@H](N)C(C)C)C(=O)N[C@@H](Cc1ccccc1)C(=O)N[C@@H](Cc1ccc(O)cc1)C(=O)N[C@H](C(=O)O)[C@@H](C)O [Peptide P4, Val-Ile-Phe-Tyr-Thr] (H-VIFYT-OH)	3.56	82
CC(C)[C@H](N)C(=O)N[C@H](C(=O)N[C@H](C(=O)N[C@H](C(=O)N[C@H](C(=O)O)C(C)C)C(C)C)C(C)C)C(C)C [Peptide P5, Val-Val-Val-Val-Val] (H-VVVVV-OH)	3.35	56

— publication PMC6085999, “Elucidating the Inhibitory Potential of Designed Peptides Against Amyloid Fibrillation and Amyloid Associated Cytotoxicity” (Frontiers in Chemistry, 2018)
